Assay results: patent US20080292561A1, “Pyrazolo-Pyrimidine Derivatives as Anti-Inflammatory Agents” (Glaxo Group Limited, priority 2005, published 2008)

Test system: NFkB activity
Experiment: Glucocorticoid mediated transrepression of NFkB activity (A549 cells, ELAM promoter alkaline phosphatase reporter, TNFα)
Type: cell-based
Conditions: Homo sapiens, A549, 16 h, Human A549 lung epithelial cells, 3 ng/ml human recombinant TNFα, read-out: pIC50, transrepression of NFkB activity (converted)
From the text: Human A549 lung epithelial cells were engineered to contain a secreted placental alkaline phosphatase gene under the control of the distal region of the NFkB dependent ELAM promoter as previously described in Ray, K. P., Farrow, S., Daly, M., Talabot, F. and Searle, N. “Induction of the E-selectin promoter by interleukin 1 and tumour necrosis factor alpha, and inhibition by glucocorticoids” Biochemical Journal (1997) 328: 707-15.
Compounds were solvated and diluted in DMSO, and transferred directly into assay plates such that the final concentration of DMSO was 0.7%. Following the addition of cells (40K per well), plates were incubated for 1 hr prior to the addition of 3 ng/ml human recombinant TNFα. Following continued incubation for 16 hr, alkaline phosphatase activity was determined by measuring the change in optical density at 405 nm with time following the addition of 0.7 volumes of assay buffer (1 mg/ml p-nitrophenylphosphate dissolved in 1M diethanolamine, 0.28M NaCl, 0.5 mM MgCl2). Dose response curves were constructed from which EC50 values were estimated.

Compound | IC50 [nM]
CCc1nc(NCC(O)(CC(C)(C)c2cccc3c2OCC3)C(F)(F)F)c2cnn(-c3ccccc3)c2n1 (stereo not shown) [Example 5, 4-(2,3-Dihydro-1-benzofuran-7-yl)-2-{[(6-ethyl-1-phenyl-1H-pyrazolo[3,4-d]pyrimidin-4-yl)amino]methyl}-1,1,1-trifluoro-4-methyl-2-pentanol] | < 100
CCc1nc(NCC(O)(CC(C)(C)c2cccc3c2OCC3)C(F)(F)F)c2cnn(-c3ccncc3)c2n1 (stereo not shown) [Example 10, 4-(2,3-Dihydro-1-benzofuran-7-yl)-2-({[6-ethyl-1-(4-pyridinyl)-1H-pyrazolo[3,4-d]pyrimidin-4-yl]amino}methyl)-1,1,1-trifluoro-4-methyl-2-pentanol] | < 100
Cc1nc(NCC(O)(CC(C)(C)c2cccc3c2OCC3)C(F)(F)F)c2cnn(-c3ccc(F)cc3)c2n1 (stereo not shown) [Example 3, 4-(2,3-Dihydro-1-benzofuran-7-yl)-1,1,1-trifluoro-2-({[1-(4-fluorophenyl)-6-methyl-1H-pyrazolo[3,4-d]pyrimidin-4-yl]amino}methyl)-4-methyl-2-pentanol] | < 100
CCc1nc(NCC(O)(CC(C)(C)c2cccc3c2OCC3)C(F)(F)F)c2cnn(-c3cccc(C#N)c3)c2n1 (stereo not shown) [Example 29, 3-(4-{[4-(2,3-Dihydro-1-benzofuran-7-yl)-2-hydroxy-4-methyl-2-(trifluoromethyl)pentyl]amino}-6-ethyl-1H-pyrazolo[3,4-d]pyrimidin-1-yl)benzonitrile] | < 100
COc1ccc(F)cc1C(C)(C)CC(O)(CNc1nc(C)nc2c1cnn2-c1ccsc1)C(F)(F)F (stereo not shown) [Example 19, 1,1,1-Trifluoro-4-[5-fluoro-2-(methyloxy)phenyl]-4-methyl-2-({[6-methyl-1-(3-thienyl)-1H-pyrazolo[3,4-d]pyrimidin-4-yl]amino}methyl)-2-pentanol] | < 100
Cc1nc(NCC(O)(CC(C)(C)c2cc(F)ccc2O)C(F)(F)F)c2cnn(-c3ccc(F)cc3F)c2n1 (single isomer, unassigned) [Example 25, 2-[3-({[1-(2,4-Difluorophenyl)-6-methyl-1H-pyrazolo[3,4-d]pyrimidin-4-yl]amino}methyl)-4,4,4-trifluoro-3-hydroxy-1,1-dimethylbutyl]-4-fluorophenol] | < 100
Cc1nc(NCC(O)(CC(C)(C)c2cccc3c2OCC3)C(F)(F)F)c2cnn(-c3ccc(F)cc3F)c2n1 (stereo not shown) [Example 4, 2-({[1-(2,4-Difluorophenyl)-6-methyl-1H-pyrazolo[3,4-d]pyrimidin-4-yl]amino}methyl)-4-(2,3-dihydro-1-benzofuran-7-yl)-1,1,1-trifluoro-4-methyl-2-pentanol] | < 100
Cc1nc(NCC(O)(CC(C)(C)c2cccc3c2OCC3)C(F)(F)F)c2cnn(-c3ccccc3)c2n1 (stereo not shown) [Example 1, 4-(2,3-Dihydro-1-benzofuran-7-yl)-1,1,1-trifluoro-4-methyl-2-{[(6-methyl-1-phenyl-1H-pyrazolo[3,4-d]pyrimidin-4-yl)amino]methyl}-2-pentanol] | < 100
CCc1nc(NCC(O)(CC(C)(C)c2cccc3c2OCC3)C(F)(F)F)c2cnn(-c3cccnc3)c2n1 (stereo not shown) [Example 9, 4-(2,3-Dihydro-1-benzofuran-7-yl)-2-({[6-ethyl-1-(3-pyridinyl)-1H-pyrazolo[3,4-d]pyrimidin-4-yl]amino}methyl)-1,1,1-trifluoro-4-methyl-2-pentanol] | < 100
CCc1nc(NCC(O)(CC(C)(C)c2cccc3c2OCC3)C(F)(F)F)c2cnn(-c3ccc(F)cc3F)c2n1 (stereo not shown) [Example 8, 2-({[1-(2,4-Difluorophenyl)-6-ethyl-1H-pyrazolo[3,4-d]pyrimidin-4-yl]amino}methyl)-4-(2,3-dihydro-1-benzofuran-7-yl)-1,1,1-trifluoro-4-methyl-2-pentanol] | < 100
COc1ccc(F)cc1C(C)(C)CC(O)(CNc1nc(C)nc2c1cnn2-c1cccc(C#N)c1)C(F)(F)F (stereo not shown) [Example 27, 3-(4-{[4-[5-Fluoro-2-(methyloxy)phenyl]-2-hydroxy-4-methyl-2-(trifluoromethyl)pentyl]amino}-6-methyl-1H-pyrazolo[3,4-d]pyrimidin-1-yl)benzonitrile] | < 100
COc1ccc(F)cc1C(C)(C)CC(O)(CNc1nc(C)nc2c1cnn2-c1ccc(F)cc1F)C(F)(F)F (stereo not shown) [Example 16, 2-({[1-(2,4-Difluorophenyl)-6-methyl-1H-pyrazolo[3,4-d]pyrimidin-4-yl]amino}methyl)-1,1,1-trifluoro-4-[5-fluoro-2-(methyloxy)phenyl]-4-methyl-2-pentanol] | < 100
CCc1nc(NCC(O)(CC(C)(C)c2cccc3c2OCC3)C(F)(F)F)c2cnn(-c3ccsc3)c2n1 (stereo not shown) [Example 12, 4-(2,3-Dihydro-1-benzofuran-7-yl)-2-({[6-ethyl-1-(3-thienyl)-1H-pyrazolo[3,4-d]pyrimidin-4-yl]amino}methyl)-1,1,1-trifluoro-4-methyl-2-pentanol] | < 100
COc1ccc(F)cc1C(C)(C)CC(O)(CNc1nc(C)nc2c1cnn2-c1cccnc1)C(F)(F)F (stereo not shown) [Example 17, 1,1,1-Trifluoro-4-[5-fluoro-2-(methyloxy)phenyl]-4-methyl-2-({[6-methyl-1-(3-pyridinyl)-1H-pyrazolo[3,4-d]pyrimidin-4-yl]amino}methyl)-2-pentanol] | < 100
COC(=O)c1cccc(-n2ncc3c(NCC(O)(CC(C)(C)c4cc(F)ccc4OC)C(F)(F)F)nc(C)nc32)c1 (stereo not shown) [Example 23, Methyl 3-(4-{[4-[5-fluoro-2-(methyloxy)phenyl]-2-hydroxy-4-methyl-2-(trifluoromethyl)pentyl]amino}-6-methyl-1H-pyrazolo[3,4-d]pyrimidin-1-yl)benzoate] | < 100
CCc1nc(NCC(O)(CC(C)(C)c2cc(F)ccc2OC)C(F)(F)F)c2cnn(-c3ccc(F)cc3)c2n1 (stereo not shown) [Example 24, 2-({[6-Ethyl-1-(4-fluorophenyl)-1H-pyrazolo[3,4-d]pyrimidin-4-yl]amino}methyl)-1,1,1-trifluoro-4-[5-fluoro-2-(methyloxy)phenyl]-4-methyl-2-pentanol] | < 100
CCOC(=O)c1cccc(-n2ncc3c(NCC(O)(CC(C)(C)c4cc(F)ccc4OC)C(F)(F)F)nc(C)nc32)c1 (stereo not shown) [Example 22, Ethyl 3-(4-{[4-[5-fluoro-2-(methyloxy)phenyl]-2-hydroxy-4-methyl-2-(trifluoromethyl)pentyl]amino}-6-methyl-1H-pyrazolo[3,4-d]pyrimidin-1-yl)benzoate] | < 100
CCc1nc(NCC(O)(CC(C)(C)c2cc(F)ccc2OC)C(F)(F)F)c2cnn(-c3ccccc3)c2n1 (stereo not shown) [Example 26, 2-{[(6-Ethyl-1-phenyl-1H-pyrazolo[3,4-d]pyrimidin-4-yl)amino]methyl}-1,1,1-trifluoro-4-[5-fluoro-2-(methyloxy)phenyl]-4-methyl-2-pentanol] | < 100
Cc1nc(NCC(O)(CC(C)(C)c2cccc3c2OCC3)C(F)(F)F)c2cnn(-c3ccccc3F)c2n1 (stereo not shown) [Example 2, 4-(2,3-Dihydro-1-benzofuran-7-yl)-1,1,1-trifluoro-2-({[1-(2-fluorophenyl)-6-methyl-1H-pyrazolo[3,4-d]pyrimidin-4-yl]amino}methyl)-4-methyl-2-pentanol] | < 100
COc1ccc(F)cc1C(C)(C)CC(O)(CNc1nc(C)nc2c1cnn2-c1ccccc1)C(F)(F)F (stereo not shown) [Example 13, 1,1,1-Trifluoro-4-[5-fluoro-2-(methyloxy)phenyl]-4-methyl-2-{[(6-methyl-1-phenyl-1H-pyrazolo[3,4-d]pyrimidin-4-yl)amino]methyl}-2-pentanol] | < 100
CCc1nc(NCC(O)(CC(C)(C)c2cccc3c2OCC3)C(F)(F)F)c2cnn(-c3cccc(C(=O)OC)c3)c2n1 (stereo not shown) [Example 30, Methyl 3-(4-{[4-(2,3-dihydro-1-benzofuran-7-yl)-2-hydroxy-4-methyl-2-(trifluoromethyl)pentyl]amino}-6-ethyl-1H-pyrazolo[3,4-d]pyrimidin-1-yl)benzoate] | < 100
COc1ccc(F)cc1C(C)(C)CC(O)(CNc1nc(C)nc2c1cnn2-c1ccc(F)nc1)C(F)(F)F (stereo not shown) [Example 20, 1,1,1-Trifluoro-4-[5-fluoro-2-(methyloxy)phenyl]-2-({[1-(6-fluoro-3-pyridinyl)-6-methyl-1H-pyrazolo[3,4-d]pyrimidin-4-yl]amino}methyl)-4-methyl-2-pentanol] | < 100
CCc1nc(NCC(O)(CC(C)(C)c2cccc3c2OCC3)C(F)(F)F)c2cnn(-c3ccc(F)nc3)c2n1 (stereo not shown) [Example 11, 4-(2,3-Dihydro-1-benzofuran-7-yl)-2-({[6-ethyl-1-(6-fluoro-3-pyridinyl)-1H-pyrazolo[3,4-d]pyrimidin-4-yl]amino}methyl)-1,1,1-trifluoro-4-methyl-2-pentanol] | < 100
COc1ccc(F)cc1C(C)(C)CC(O)(CNc1nc(C)nc2c1cnn2-c1ccc(C#N)cc1)C(F)(F)F (stereo not shown) [Example 21, 4-(4-{[4-[5-Fluoro-2-(methyloxy)phenyl]-2-hydroxy-4-methyl-2-(trifluoromethyl)pentyl]amino}-6-methyl-1H-pyrazolo[3,4-d]pyrimidin-1-yl)benzonitrile] | < 100
CCc1nc(NCC(O)(CC(C)(C)c2cccc3c2OCC3)C(F)(F)F)c2cnn(-c3ccccc3F)c2n1 (stereo not shown) [Example 6, 4-(2,3-Dihydro-1-benzofuran-7-yl)-2-({[6-ethyl-1-(2-fluorophenyl)-1H-pyrazolo[3,4-d]pyrimidin-4-yl]amino}methyl)-1,1,1-trifluoro-4-methyl-2-pentanol] | < 100
